A short description of series [1]: Competition ELISA for bovine OPN in plasma of mice fed with OPN. It is filed as in vivo. As to conditions: mice fed 50 mg of OPN over 10-30 minutes. As for the experimental part:
In a previous experiment the inventors have detected osteopontin peptides in the plasma of mice fed with OPN using a competition ELISA for bovine OPN: the assay was designed to detect any peptides that can block interaction of intact bovine OPN with the polyclonal antibody used. Plasma from mice fed 50 mg of OPN over 10-30 minutes was analyzed using this ELISA. Peak antibody reactivity was detected at 1-4 hours after feeding, with the highest mean levels being close to 5000 ng/ml.
On the technique in general: In an ELISA, binding on a coated surface is turned into a signal by an enzyme label.

The test system of series [2] is 275-3-2 murine ras-transformed fibroblast cells. The series can be described thus: Oral administration of osteopontin to 129B6F1 tumor-bearing mice. The note with it: for size of the tumor: FIG. 1b. It is filed as in vivo. As for the experimental part:
A bovine OPN preparation (Lacprodan®, Arla Foods Ingredients, Viby, Denmark) was dissolved in deionized water, filtered, and administered at final concentrations of 0.03, 0.12, or 0.3 mg/ml to 129B6F1 tumor-bearing mice starting either on the day of tumor cell inoculation (Day 0) or five days later (Day 5). The mice were initially inoculated with 5×10^4 mycoplasma-free 275-3-2 murine ras-transformed fibroblast cells (see Wu 2000). Tumor size was measured with calipers and monitored until the tumors reached 20% of the body weight of the animals, at which time the mice were sacrificed and tissue/plasma samples collected. Statistical significance was calculated using one-way ANOVA with Bonferroni post-test.

“OPN: bovine OPN preparation (Lacprodan®, Arla Foods Ingredients, Viby, Denmark)”: the “highest mean plasma levels (immunoreactive OPN peptides)” value in series [1] was ~5000 ng/mL. Besides, in series [1], the “time of peak antibody reactivity in plasma after feeding” value was in the range of 1 to 4 h. Moreover, the “size of the tumor” value in series [2] (oral OPN 0.12 mg/ml started five days after tumor cell injection, at 15 days) is given as “statistically significant decrease”; in series [2] (oral OPN 0.3 mg/ml started five days after tumor cell injection, at 17 days), “statistically significant decrease”. In addition, in series [2] (oral OPN in drinking water started at the time of tumor injection (Day 0), up to 17 days, FIG. 1A), the “effect on the size of the tumors” value is “no significant effect”. In series [2] (oral dosing experiments, 0.03, 0.12, 0.3 mg/ml, highest dose used), the “most effective dose of OPN preparation” value stood at 0.3 mg/mL. Besides, the “effect of treatment on mouse weight” value in series [2] (oral, about 1.5 mg protein administered) is listed as “nor is there any effect”.

The values are drawn from patent US20150190460A1, “OSTEOPONTIN PEPTIDE FRAGMENTS FOR USE IN SUPPRESSION OR PREVENTION OF TUMOR GROWTH” (FORSYTH DENTAL INFIRMARY FOR CHILDREN (D/B/A THE FORSYTH …, priority 2012, published 2015).
